Measured values from paper PMC11679793, “Structure-Activity Relationship Study of Majusculamide D: Overcoming Metabolic Instability and Severe Toxicity with a Fluoro Analogue” (Marine Drugs, 2024).
Converted amounts (≈) assume the structure as drawn. Like-named read-outs stand apart in the source and are kept apart here.

Assays:
[1] = Preliminary water solubility test; assay type: physicochemical; conditions: thermodynamic from solid, 25 °C, ultrasonic treatment 30 min, visual
PANC-1 cells = experiment: MTT cell activity assay (inhibitory activity against PANC-1 cells); assay type: cell-based
Protocol: A total of 3000 PANC-1 cells were resuspended in 200 μL of culture medium and seeded into 96-well plates. After 24 h, the cells were treated with the compound and incubated for an additional 72 h. Following the incubation, 20 μL of 5 mg/mL MTT solution (Solarbio, China) was added to each well in the dark, and the cells were incubated for another 4 h. After incubation, the culture medium was discarded, and the wells were washed with PBS to remove any residual medium. Then, 200 μL of DMSO was added to each well to fully dissolve the formazan crystals, and the solution was mixed thoroughly. The absorbance was measured at 492 nm/570 nm, and the data were analyzed using GraphPad Prism.

PANC-1 xenograft tumor = test system: PANC-1 xenograft tumor
Protocol: Furthermore, a xenografted murine subcutaneous tumor model was employed to evaluate the effects of majusculamide D and the optimized analogues 1c and 1n (Figure 1B). PANC1-bearing BALB/c nude mice were separated randomly, with a total of six mice in each group. Gemcitabine was chosen as the positive drug; the mice were then administered intravenous doses of 1c (5 mg/kg), 1n (5 mg/kg), 1a (5 mg/kg), and gemcitabine (20 mg/kg) every other day for 24 days.
A total of 4 × 10^6 PANC-1 cells suspended in 100 μL PBS were subcutaneously injected into the right shoulder region of BALB/c nude mice. When the tumor volume reached approximately 200 mm^3, the mice were euthanized, and the tumor tissues were harvested and designated as F1 generation. Tumor tissues were then cut into small cubes measuring approximately 3 × 3 × 3 mm, which were implanted into new BALB/c mice to propagate the tumors. This procedure was repeated to obtain the F2 generation of tumors. Finally, mice bearing F3 generation transplant tumors were used for drug treatment experiments. When the tumor volume reached approximately 80–100 mm^3, the mice were randomly divided into five groups (n = 6): control group, 5 mg/kg compound 1a group, 5 mg/kg compound 1c group, 5 mg/kg compound 1n group, and 20 mg/kg gemcitabine group. The compounds 1a, 1c, and 1n were dissolved in DMSO and then diluted with 0.9% physiological saline to achieve a final concentration of 0.5 mg/mL as the dosing concentration. Gemcitabine was dissolved directly in 0.9% saline to achieve a final concentration of 2 mg/mL as the dosing concentration. The compounds were administered intravenously every two days, alternating between the left and right tail veins to minimize vein damage. Injections were performed using ultra-fine syringes (30G needles) to reduce stress and ensure consistent delivery. The body weight and tumor volume of the mice were measured every four days. On day 24, the mice were euthanized, and the tumor weights were recorded. Tumor volume (V) was calculated using the formula: V = (ab^2)/2, with “a” representing the long diameter of the tumor and “b” representing the short diameter of the tumor. […] Tumor weight was used to calculate the tumor inhibition rate (Figure 1G).

[2] = Homo sapiens, PANC-1 cells, 72 h incubation, mean ± SD, n = 3, Table 2 series, read-out: IC50 (nM), inhibitory activity against PANC-1 cells (Table 2)
[3] = Homo sapiens, PANC-1, 72 h, read-out: IC50 (nM), inhibitory activity against PANC-1 cells (Table 1), PANC-1 cells, 72 h incubation, mean ± SD, n = 3
[4] = read-out: IC50 (nM), inhibitory activity against PANC-1 cells (Table 1), PANC-1 cells, 72 h incubation, mean ± SD, n = 3
[5] = Homo sapiens, PANC-1 cells, 72 h incubation, mean ± SD, n = 3, read-out: IC50 (nM), inhibitory activity against PANC-1 cells (Table 1)

SMILES	solubility [1] [µg/mL]	IC50 (PANC-1 cells; [2]) [nM]	further results
CCCC[C@@H](C)C[C@@H](C)C(=O)N(C)[C@@H](Cc1ccc(OC)cc1)C(=O)N[C@H](C(=O)N(C)[C@H](C(=O)N1C[C@@H](O)C[C@H]1C(=O)N1C(=O)C=C[C@@H]1C)C(C)C)[C@@H](C)NC(=O)[C@@H]1CCCN1 [Compound 16a]	210 (≈ 242 µM)	40.8 ± 14.1	
CCCCC(C)CC(C)C(=O)N(C)C(Cc1ccc(OC)cc1)C(=O)NC(C(=O)N(C)C(C(=O)N1CC(O)CC1C(=O)N1C(=O)C=CC1C)C(C)C)C(C)O (stereo not shown) [Compound 14a]			IC50 (PANC-1 cells; [3]): 1160 ± 195 nM
CCCC[C@@H](C)C[C@@H](C)C(=O)N(C)[C@@H](Cc1ccc(OC)cc1)C(=O)N[C@H](C(=O)N(C)[C@H](C(=O)N1C[C@@H](O)C[C@H]1C(=O)N1C(=O)C=C[C@@H]1C)C(C)C)[C@@H](C)NC(=O)[C@@H](N)CO [Compound 16j]	360 (≈ 421 µM)	184 ± 33.2	
CCCCC(C)CC(C)C(=O)N(C)C(Cc1ccc(O)cc1)C(=O)NC(C(=O)N(C)C(C(=O)N1CC(O)CC1C(=O)N1C(=O)C=CC1C)C(C)C)C(C)OC(C)=O (stereo not shown) [Compound 14c]			IC50 (PANC-1 cells; [3]): 5.31 ± 1.46 nM
CCCC[C@@H](C)C[C@@H](C)C(=O)N(C)[C@@H](Cc1ccc(OC)cc1)C(=O)N[C@H](C(=O)N(C)[C@H](C(=O)N1C[C@@H](O)C[C@H]1C(=O)N1C(=O)C=C[C@@H]1C)C(C)C)[C@@H](C)NC(=O)[C@@H](N)CCSC [Compound 16f]	170 (≈ 189 µM)	13.1 ± 6.3	
CCCCC(C)CC(C)C(=O)N(C)C(Cc1ccc(OC)cc1)C(=O)NC(C(=O)N(C)C(C(=O)N1CC(O)CC1C(=O)N1CC=CC1=O)C(C)C)C(C)OC(C)=O (stereo not shown) [Compound 1l]			IC50 (PANC-1 cells; [3]): 134 ± 78.2 nM
Nc1ccn([C@@H]2O[C@H](CO)[C@@H](O)C2(F)F)c(=O)n1 [Gemcitabine, reference compound]			tumor inhibition rate (%) (PANC-1 xenograft tumor; calculated from tumor weight, day 24, 1a, 1c, 1n 5 mg/kg, gemcitabine 20 mg/kg i.v.): 51.0%; tumor weight (PANC-1 xenograft tumor; day 24, i.v. every other day, 1a, 1n 5 mg/kg, gemcitabine 20 mg/kg, mean ± SD): 0.548 ± 0.153 g; tumor volume (PANC-1 xenograft tumor; mouse, in vivo): 561.1 ± 177.3 mm^3
CCCC[C@@H](C)C[C@@H](C)C(=O)N(C)[C@@H](Cc1ccc(OC)cc1)C(=O)N[C@H](C(=O)N(C)[C@H](C(=O)N1C[C@@H](O)C[C@H]1C(=O)N1C(=O)C=C[C@@H]1C)C(C)C)[C@@H](C)NC(=O)[C@@H](N)CCC(N)=O [Compound 16i]	530 (≈ 591 µM)	740 ± 713	
CCCC[C@@H](C)C[C@@H](C)C(=O)N(C)[C@@H](Cc1ccc(OC)cc1)C(=O)N[C@H](C(=O)N(C)[C@H](C(=O)N1C[C@@H](O)C[C@H]1C(=O)N1C(=O)C=C[C@@H]1C)C(C)C)[C@@H](C)NC(=O)[C@@H](N)[C@@H](C)O [Compound 16b]	410 (≈ 471 µM)	116 ± 54	
CCCCC(C)CC(C)C(=O)N(C)C(Cc1ccc(OC)cc1)C(=O)NC(C(=O)N(C)C(C(=O)N1CC(O)CC1C(=O)N1C(=O)C=CC1C)C(C)C)C(C)OC(C)=O (stereo not shown) [Compound 1m]			IC50 (PANC-1 cells; [4]): 4.68 ± 0.59 nM
CCCCC(C)CC(C)C(=O)N(C)C(Cc1ccccc1)C(=O)NC(C(=O)N(C)C(C(=O)N1CC(O)CC1C(=O)N1C(=O)C=CC1C)C(C)C)C(C)OC(C)=O (stereo not shown) [Compound 1h]			IC50 (PANC-1 cells; [3]): 72 ± 21.9 nM
CCCC[C@@H](C)C[C@@H](C)C(=O)N(C)[C@@H](Cc1ccc(OC)cc1)C(=O)N[C@H](C(=O)N(C)[C@H](C(=O)N1C[C@@H](O)C[C@H]1C(=O)N1C(=O)C=C[C@@H]1C)C(C)C)[C@@H](C)NC(=O)CN [Compound 16g]	160 (≈ 194 µM)	43.1 ± 29.8	
CCCCC(C)CC(C)C(=O)N(C)C(Cc1ccc(-c2ccccc2)cc1)C(=O)NC(C(=O)N(C)C(C(=O)N1CC(O)CC1C(=O)N1C(=O)C=CC1C)C(C)C)C(C)OC(C)=O (stereo not shown) [Compound 1j]			IC50 (PANC-1 cells; [3]): < 1 nM; IC50 (PANC-1 cells; [4]): 0.7 ± 0.07 nM
CCCC[C@@H](C)C[C@@H](C)C(=O)N(C)[C@@H](Cc1ccc(OC)cc1)C(=O)N[C@H](C(=O)N(C)[C@H](C(=O)N1C[C@@H](O)C[C@H]1C(=O)N1C(=O)C=C[C@@H]1C)C(C)C)[C@@H](C)NC(=O)[C@H](C)N [Compound 16h]	360 (≈ 429 µM)	79.9 ± 45.9	
CCCCC(C)CC(C)C(=O)N(C)C(Cc1ccc(OC)cc1)C(=O)NC(C(=O)N(C)C(C(=O)N1CC(F)CC1C(=O)N1C(=O)C=CC1C)C(C)C)C(C)OC(C)=O (stereo not shown) [Compound 1k]			IC50 (PANC-1 cells; [3]): 2.55 ± 0.55 nM
CCCC[C@@H](C)C[C@@H](C)C(=O)N(C)[C@@H](Cc1ccc(OC)cc1)C(=O)N[C@H](C(=O)N(C)[C@H](C(=O)N1C[C@@H](O)C[C@H]1C(=O)N1C(=O)C=C[C@@H]1C)C(C)C)[C@@H](C)NC(=O)CNC [Compound 16d]	810 (≈ 964 µM)	16.2 ± 6.72	
CCCC[C@@H](C)C[C@@H](C)C(=O)N(C)[C@@H](Cc1ccc(OC)cc1)C(=O)N[C@H](C(=O)N(C)[C@H](C(=O)N1C[C@@H](O)C[C@H]1C(=O)N1C(=O)C=C[C@@H]1C)C(C)C)[C@@H](C)NC(=O)[C@@H](N)Cc1ccc(O)cc1 [Compound 16m]	160 (≈ 172 µM)	278 ± 14.9	
CCCC[C@@H](C)C[C@@H](C)C(=O)N(C)[C@@H](Cc1ccc(OC)cc1)C(=O)N[C@H](C(=O)N(C)[C@H](C(=O)N1C[C@@H](O)C[C@H]1C(=O)N1C(=O)C=C[C@@H]1C)C(C)C)[C@@H](C)NC(=O)[C@@H](N)Cc1ccccc1 [Compound 16l]	130 (≈ 142 µM)	55.4 ± 14.7	
CCCCC(C)CC(C)C(=O)N(C)C(Cc1ccc(OC)cc1)C(=O)NC(C(=O)N(C)C(C(=O)N1CC(O)CC1C(=O)N1C(=O)C=CC1C)C(C)C)C(C)NC(=S)NC (stereo not shown) [Compound 14b]			IC50 (PANC-1 cells; [5]): 1.06 ± 0.35 nM
CCCC[C@@H](C)C[C@@H](C)C(=O)N(C)[C@@H](Cc1ccc(OC)cc1)C(=O)N[C@H](C(=O)N(C)[C@H](C(=O)N1C[C@@H](O)C[C@H]1C(=O)N1C(=O)C=C[C@@H]1C)C(C)C)[C@@H](C)NC(=O)[C@@H](N)CC(C)C [Compound 16e]	230 (≈ 261 µM)	34.2 ± 6.36	
CCCC[C@@H](C)C[C@@H](C)C(=O)N(C)[C@@H](Cc1ccc(OC)cc1)C(=O)N[C@H](C(=O)N(C)[C@H](C(=O)N1C[C@@H](O)C[C@H]1C(=O)N1C(=O)C=C[C@@H]1C)C(C)C)[C@@H](C)NC(=O)C1CCC(=O)N1 (stereo partly shown) [Compound 16k]	330 (≈ 375 µM)	472 ± 69.7	
CCCCC(C)CC(C)C(=O)N(C)C(Cc1ccc(OC)cc1)C(=O)NC(COC(C)=O)C(=O)N(C)C(C(=O)N1CC(O)CC1C(=O)N1C(=O)C=CC1C)C(C)C (stereo not shown) [Compound 1d]			IC50 (PANC-1 cells; [3]): 2.15 ± 0.37 nM
CCCC[C@@H](C)C[C@@H](C)C(=O)N(C)[C@@H](Cc1ccc(OC)cc1)C(=O)N[C@H](C(=O)N(C)[C@H](C(=O)N1C[C@@H](O)C[C@H]1C(=O)N1C(=O)C=C[C@@H]1C)C(C)C)[C@@H](C)NC(=O)[C@@H](N)Cc1c[nH]c2ccccc12 [Compound 16c]	200 (≈ 209 µM)	34.4 ± 4.5	
CCCCC(C)CC(C)C(=O)N(C)C(Cc1ccc(OC)cc1)C(=O)NC(C(=O)N(C)C(C(=O)N1CC(O)CC1C(=O)N1C(=O)C=CC1C)C(C)C)C(C)NC(C)=O (stereo not shown) [Compound 1e]			IC50 (PANC-1 cells; [5]): 2.94 ± 0.93 nM
